# Source: US7589173B2, “Methods for diagnosing cancer and decreasing metastasis by cancer cells” (The Scripps Research Institute, priority 2003, dated 2009)
# Tested on: SIMA135 tyrosine phosphorylation
# Settings: PP2 50 μM, 30 minutes at 37° C, serum free DMEM
# Procedure: Cell lysates, serum free conditioned media and immunoprecipitated proteins were separated by electrophoresis through 8% SDS-polyacrylamide gels then transferred to nitrocellulose membranes (Millipore). […] Following extensive washing membranes were incubated for 2 hr at room temperature with goat anti-mouse IgG (0.16 μg/ml, Pierce, Rockford, Il) and immunoreactive bands detected by enhanced chemiluminescence (Pierce).
# For analysis of the basal level of tyrosine phosphorylation of SIMA135, subconfluent cultures of HEp3 and HeLa (as negative control) cells were incubated at 37° C. for 30 min with serum free DMEM containing 50 mM NaF and 1 mM Na3VO4 then washed with ice cold PBS. For inhibition of Src kinase family phosphorylation, HEp3 cells were cultured in serum free DMEM without NaF and Na3VO4 for 30 minutes at 37° C. with PP2 (50 μM). Cells were then lysed in ice cold buffer containing 50 mM Tris (pH 7.4), 150 mM NaCl, 1% Triton X-100, 1 mM phenylmethylsulfonyl fluoride, 1 mM benzamidine, 25 μg/ml aprotinin, 25 μg/ml leupeptin, 50 mM NaF and 1 mM Na3VO4. Insoluble material was removed by centrifugation at 14000 rpm for 10 min. […] Cells lysates were collected as described above.
smiles,measurement,value
CC(C)(C)n1nc(-c2ccc(Cl)cc2)c2c(N)ncnc21 [PP2],reduction in the level of SIMA135 tyrosine phosphorylation compared to untreated HEp3 cells,~75%
